Results published in US20190337924A1, “SUBSTITUTED HYDANTOIN AND THIOHYDANTOIN DERIVATIVES AS ANDROGEN RECEPTOR ANTAGONISTS” (Janssen Pharmaceutica NV, priority 2016, published 2019).
Structures can show the parent of a compound that is named as a salt. Where two headings read alike, the source gives them in different places.

Biological target: T1, wild-type Androgen Receptor (AR-wt) (Homo sapiens, UniProt P10275)
T1 construct: expressed in transfected cells; host or cells: LNCaP
T1 sequence (P10275 1-920): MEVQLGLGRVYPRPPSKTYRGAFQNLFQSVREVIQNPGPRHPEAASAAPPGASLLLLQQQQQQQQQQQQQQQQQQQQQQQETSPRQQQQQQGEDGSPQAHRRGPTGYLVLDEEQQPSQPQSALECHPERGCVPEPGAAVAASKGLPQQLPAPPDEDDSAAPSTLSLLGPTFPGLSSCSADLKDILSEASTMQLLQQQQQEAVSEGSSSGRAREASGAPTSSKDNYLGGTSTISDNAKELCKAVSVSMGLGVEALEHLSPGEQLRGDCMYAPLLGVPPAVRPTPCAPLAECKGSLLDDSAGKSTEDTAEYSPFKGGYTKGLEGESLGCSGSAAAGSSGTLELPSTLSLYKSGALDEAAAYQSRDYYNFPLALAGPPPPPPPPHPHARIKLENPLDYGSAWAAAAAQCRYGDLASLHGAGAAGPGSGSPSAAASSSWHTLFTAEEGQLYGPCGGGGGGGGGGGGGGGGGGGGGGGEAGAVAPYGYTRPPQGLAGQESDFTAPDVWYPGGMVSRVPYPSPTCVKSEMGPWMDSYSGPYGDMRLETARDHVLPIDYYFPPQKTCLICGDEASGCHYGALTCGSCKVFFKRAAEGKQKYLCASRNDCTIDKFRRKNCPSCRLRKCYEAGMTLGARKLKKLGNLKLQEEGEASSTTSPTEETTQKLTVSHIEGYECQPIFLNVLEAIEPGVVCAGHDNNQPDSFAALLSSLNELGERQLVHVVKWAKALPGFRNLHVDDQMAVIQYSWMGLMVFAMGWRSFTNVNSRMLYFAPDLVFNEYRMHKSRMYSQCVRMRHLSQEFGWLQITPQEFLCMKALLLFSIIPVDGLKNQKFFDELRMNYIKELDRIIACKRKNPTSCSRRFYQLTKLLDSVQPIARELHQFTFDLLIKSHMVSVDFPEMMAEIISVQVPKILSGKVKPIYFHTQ
Assay: AR reporter assay, LNCaP-AR-wt ANT (antagonist mode)
Assay type: cell-based
Details: for Emax: read-out: LNCaP-AR-wt ANT MAX % Inh
Description: LNCaP AR (cs) and LNCaP F876L luciferase cell lines were generated by transduction of each cell line (description of cell line generation Joseph J D, Lu N, Qian J, Sensintaffar J, Shao G, Brigham D, Moon M, Maneval E C, Chen I, Darimont B, Hager J H. A clinically relevant androgen receptor mutation confers resistance to second-generation antiandrogens enzalutamide and ARN-509. Cancer Discov 2013; 3:1020-1029) with an Androgen Response Element Firefly Luciferase lentiviral construct at an MOI (multiplicity of infection) of 50 following the manufacturer's instructions (Qiagen). A stable pooled-population cell line was generated using puromycin (Life Technologies) selection at 1:10,000 v/v. The protocol below was used for both cell lines and for testing of the compounds of Formula (I) of the present invention.
LNCaP cells were grown to about 80% confluence, media removed and cells rinsed in Hank's balanced salt solution prior to separation from the plate with 0.05% Trypsin EDTA. Cells were lifted and trypsin negated in complete CSS (charcoal stripped serum) culture media. CSS was maintained on cells for 24 h prior to assay, at which time 5,000 cells/[…] were seeded in Greiner 384 well White/White Tissue Culture Treated Plates and incubated for a further 1-2 hours at 37° C., 5% CO2, prior to addition of 10 μL of 4× Test Compounds (compounds described herein) or Assay Controls (all diluted in complete media containing 10% css). A further 10 μL of 4× R-1881 Agonist Challenge (antagonist assay) or Buffer (agonist assay) was then added (all diluted in complete media containing 10% css). Agonist challenge was at 400 pM for WT assay and 600 pM for F876L assay. Plates containing cells and compounds herein were incubated for a further 20-24 hours at 37° C., 5% CO2 before addition of 40 μL/well of Steady-Glo Luciferase Assay System Reagent (Promega#E2520). After 1 h, plates were read for luminescence on a BMG Pherastar.
Agonist challenge: R-1881 (Metribolone)—Agonist
Antagonist control (low control): 5-(5-(4-((1-Methylpiperidin-4-yl)oxy)phenyl)-8-oxo-6-thioxo-5,7-diazaspiro[3.4]octan-7-yl)-3-(trifluoromethyl)picolinonitrile (WO 2011/103202, EXAMPLE 19, Compound 129, CAS #1332390-06-3).
(1−(Sample RLU−Ave Low Control RLU[10 μM Antagonist Control])/(Ave High Control RLU [400 pM R-1881]−Ave Low Control RLU[10 μM Antagonist Control]))*100.
EC/IC50 calculations were achieved utilizing calculated RLU data and data fitting macros. Data were fit using least-squares methods to the following formula: […]
As used herein: • pIC50 is defined as −Log10(IC50 expressed in [Molar]). • pEC50 is defined as −Log10(EC50 expressed in [Molar]). • MAX % Inh is defined as the maximum % inhibition of R1881 control response observed for a compound over the tested concentration range. • MAX % Stim is defined as the maximum % stimulation (agonist response) observed for a compound over the tested concentration range. • LNCaP-AR-wt ANT refers to the reporter assay using LNCaP cells stably transfected with the Androgen Response Element Firefly Luciferase lentiviral construct and wild-type Androgen Receptor (AR-wt) in Antagonist mode. • LNCaP-AR-wt AG refers to the reporter assay using LNCaP cells stably transfected with the Androgen Response Element Firefly Luciferase lentiviral construct and wild-type Androgen Receptor (AR-wt) in Agonist mode. • LNCaP-AR-F876L ANT refers to the reporter assay using LNCaP cells stably transfected with the Androgen Response Element Firefly Luciferase lentiviral construct and F876L mutant Androgen Receptor (AR-F876L) in Antagonist mode. • LNCaP-AR-F876L AG refers to the reporter assay using LNCaP cells stably transfected with the Androgen Response Element Firefly Luciferase lentiviral construct and F876L mutant Androgen Receptor (AR-F876L) in Agonist mode.

[1] = antagonist mode, 400 pM R-1881 challenge, luciferase reporter, -Log10(IC50 in Molar), read-out: LNCaP-AR-wt ANT pIC50 (converted)

SMILES | IC50 [1] [µM] | Emax [%] | IC50 [µM]
Cc1cc(N2C(=O)C3(CCC3)N(c3ccc(OC4CCN(C)CC4)nc3)C2=S)ccc1C#N [Compound 18, 2-Methyl-4-(5-(6-((1-methylpiperidin-4-yl)oxy)pyridin-3-yl)-8-oxo-6-thioxo-5,7-diazaspiro[3.4]octan-7-yl)benzonitrile] | 0.0363 | 99.4 | –
COc1cc(N2C(=O)C3(CCC3)N(c3ccc(OC4CCN(C)CC4)cc3)C2=S)ccc1C#N [Compound 19, 2-Methoxy-4-(5-(4-((1-methylpiperidin-4-yl)oxy)phenyl)-8-oxo-6-thioxo-5,7-diazaspiro[3.4]octan-7-yl)benzonitrile] | 0.141 | 105 | –
COc1cc(N2C(=O)C3(CCC3)N(c3ccc(OC4CCN(C)CC4)nc3)C2=S)ccc1C#N [Compound 20, 2-Methoxy-4-(5-(6-((1-methylpiperidin-4-yl)oxy)pyridin-3-yl)-8-oxo-6-thioxo-5,7-diazaspiro[3.4]octan-7-yl)benzonitrile] | 0.214 | 100 | –
N#Cc1ccc(N2C(=O)C3(CCC3)N(c3ccc(OC4CCNCC4)cc3)C2=S)cc1Cl [Compound 21, 2-Chloro-4-(8-oxo-5-(4-(piperidin-4-yloxy)phenyl)-6-thioxo-5,7-diazaspiro[3.4]octan-7-yl)benzonitrile] | 0.331 | 106 | –
CN1CCC(Oc2ccc(N3C(=S)N(c4ccc(C#N)c(Cl)c4)C(=O)C34CCC4)cc2)CC1 [Compound 22, 2-Chloro-4-(5-(4-((1-methylpiperidin-4-yl)oxy)phenyl)-8-oxo-6-thioxo-5,7-diazaspiro[3.4]octan-7-yl)benzonitrile] | – | 98.4 | 0.245
N#Cc1ccc(N2C(=O)C3(CCC3)N(c3ccc(OC4CCNCC4)nc3)C2=S)cc1Cl [Compound 23, 2-Chloro-4-(8-oxo-5-(6-(piperidin-4-yloxy)pyridin-3-yl)-6-thioxo-5,7-diazaspiro[3.4]octan-7-yl)benzonitrile hydrochloride] | – | 105 | 0.0676
CN1CCC(Oc2ccc(N3C(=S)N(c4ccc(C#N)c(Cl)c4)C(=O)C34CCC4)cn2)CC1 [Compound 24, 2-Chloro-4-(5-(6-((1-methylpiperidin-4-yl)oxy)pyridin-3-yl)-8-oxo-6-thioxo-5,7-diazaspiro[3.4]octan-7-yl)benzonitrile hydrochloride] | – | 102 | 0.0955
